Where “and” joins values, the source holds several entries; their conditions need not be identical. Equal values may be shown once. Where a name gives a salt, the structure may show the parent alone.
Assays:
SSAO = biological target: T1, SSAO (Homo sapiens, UniProt Q16853); type: biochemical; conditions: Table 7
T1 construct: purchased Sigma
T1 sequence (Q16853 1-763): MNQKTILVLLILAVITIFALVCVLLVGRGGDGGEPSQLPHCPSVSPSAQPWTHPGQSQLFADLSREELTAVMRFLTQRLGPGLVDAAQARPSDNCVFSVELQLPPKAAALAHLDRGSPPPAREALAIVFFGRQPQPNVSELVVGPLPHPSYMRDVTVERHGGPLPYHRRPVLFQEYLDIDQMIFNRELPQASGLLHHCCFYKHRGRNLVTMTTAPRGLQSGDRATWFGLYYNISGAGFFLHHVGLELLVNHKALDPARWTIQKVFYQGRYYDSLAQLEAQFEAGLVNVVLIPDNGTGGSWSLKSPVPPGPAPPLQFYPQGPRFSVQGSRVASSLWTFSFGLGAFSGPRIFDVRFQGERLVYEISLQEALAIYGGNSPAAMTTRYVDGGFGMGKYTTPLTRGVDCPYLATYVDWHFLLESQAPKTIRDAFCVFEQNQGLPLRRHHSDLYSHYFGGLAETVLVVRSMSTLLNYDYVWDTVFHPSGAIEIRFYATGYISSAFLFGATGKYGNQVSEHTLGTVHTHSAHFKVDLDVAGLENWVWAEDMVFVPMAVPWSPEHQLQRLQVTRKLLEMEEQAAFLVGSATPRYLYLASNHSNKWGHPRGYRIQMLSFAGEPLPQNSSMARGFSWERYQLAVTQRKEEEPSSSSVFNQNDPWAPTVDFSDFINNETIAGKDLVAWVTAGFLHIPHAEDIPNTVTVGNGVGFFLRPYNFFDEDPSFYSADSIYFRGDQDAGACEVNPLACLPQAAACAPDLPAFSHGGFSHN
Method: (§1) All amine oxidase assays were performed with concentrations as above. MAO-A and MAO-B enzymes were purchased from Sigma. The catalytic activity of MAO-A and MAO-B was determined using the Promega MAO-Glo assay kit (substrate included), with clorgyline and deprenyl as reference inhibitor controls, respectively. DAO was purchased from Sigma, and the catalytic activity was determined using the Promega ROS-Glo assay kit, with aminoguanidine as the reference inhibitor control. SSAO was purchased from Sigma. SSAO catalytic activity was determined using the Promega MAO-Glo assay kit, with mofegiline as the reference inhibitor control.

MAO-A = biological target: T2, MAO-A (Homo sapiens, UniProt P21397); type: biochemical; conditions: Table 7
T2 construct: purchased Sigma
T2 sequence (P21397 1-527): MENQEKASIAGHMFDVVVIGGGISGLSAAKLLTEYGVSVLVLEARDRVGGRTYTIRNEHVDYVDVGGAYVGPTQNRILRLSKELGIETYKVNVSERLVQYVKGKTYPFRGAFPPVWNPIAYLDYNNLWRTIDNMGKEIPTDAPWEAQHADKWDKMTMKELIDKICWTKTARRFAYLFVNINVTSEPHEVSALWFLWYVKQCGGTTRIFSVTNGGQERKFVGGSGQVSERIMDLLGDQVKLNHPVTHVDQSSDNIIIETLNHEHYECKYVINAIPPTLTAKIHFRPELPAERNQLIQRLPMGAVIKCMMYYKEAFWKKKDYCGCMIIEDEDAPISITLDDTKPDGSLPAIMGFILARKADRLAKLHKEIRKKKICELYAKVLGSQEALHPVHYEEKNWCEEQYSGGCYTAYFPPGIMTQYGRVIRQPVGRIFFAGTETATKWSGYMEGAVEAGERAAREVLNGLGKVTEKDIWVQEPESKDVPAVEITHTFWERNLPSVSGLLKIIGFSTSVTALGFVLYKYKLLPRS
Method: as §1

MAO-B = biological target: T3, MAO-B (Homo sapiens, UniProt P27338); type: biochemical; conditions: Table 7
T3 construct: purchased Sigma
T3 sequence (P27338 1-520): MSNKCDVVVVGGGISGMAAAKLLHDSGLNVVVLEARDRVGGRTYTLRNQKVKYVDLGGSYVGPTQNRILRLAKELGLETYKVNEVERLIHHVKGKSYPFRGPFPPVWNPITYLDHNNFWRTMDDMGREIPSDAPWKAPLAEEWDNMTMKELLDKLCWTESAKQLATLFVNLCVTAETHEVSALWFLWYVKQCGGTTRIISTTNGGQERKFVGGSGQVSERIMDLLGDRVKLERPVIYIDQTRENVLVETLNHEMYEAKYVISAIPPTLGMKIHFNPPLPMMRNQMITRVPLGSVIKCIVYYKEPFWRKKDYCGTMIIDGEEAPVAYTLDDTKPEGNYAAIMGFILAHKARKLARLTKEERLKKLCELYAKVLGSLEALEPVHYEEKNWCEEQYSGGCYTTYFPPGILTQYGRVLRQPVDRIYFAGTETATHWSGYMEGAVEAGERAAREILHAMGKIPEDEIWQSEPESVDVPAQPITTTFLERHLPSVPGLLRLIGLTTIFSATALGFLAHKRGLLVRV
Method: as §1

DAO = biological target: T4, DAO (Sus scrofa, UniProt Q9TRC7); type: biochemical; conditions: Table 7
T4 construct: purchased Sigma
T4 sequence (Q9TRC7 25-755): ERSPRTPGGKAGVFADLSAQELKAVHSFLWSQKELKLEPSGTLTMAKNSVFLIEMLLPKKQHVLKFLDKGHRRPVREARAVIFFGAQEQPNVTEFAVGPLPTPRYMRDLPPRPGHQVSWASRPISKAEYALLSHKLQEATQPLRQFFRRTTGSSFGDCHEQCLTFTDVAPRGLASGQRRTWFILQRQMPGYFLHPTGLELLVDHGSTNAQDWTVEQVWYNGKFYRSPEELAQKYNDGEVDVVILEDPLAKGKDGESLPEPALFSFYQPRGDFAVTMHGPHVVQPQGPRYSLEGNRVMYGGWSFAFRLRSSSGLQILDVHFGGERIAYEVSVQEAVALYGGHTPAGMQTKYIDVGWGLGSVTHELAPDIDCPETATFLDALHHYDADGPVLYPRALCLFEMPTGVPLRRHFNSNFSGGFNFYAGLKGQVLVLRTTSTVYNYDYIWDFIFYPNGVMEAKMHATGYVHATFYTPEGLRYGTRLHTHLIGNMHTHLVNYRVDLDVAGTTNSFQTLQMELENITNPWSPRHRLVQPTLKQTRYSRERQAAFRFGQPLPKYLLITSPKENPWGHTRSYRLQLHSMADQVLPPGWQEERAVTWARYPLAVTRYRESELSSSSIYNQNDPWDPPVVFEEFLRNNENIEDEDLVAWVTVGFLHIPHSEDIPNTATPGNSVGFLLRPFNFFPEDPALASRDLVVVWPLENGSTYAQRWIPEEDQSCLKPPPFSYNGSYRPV
Method: as §1

MLM stability assay = type: in vitro ADME; conditions: mouse liver microsomes; percentage of compound remaining after 30 min; 10 μM
Method: Mouse liver microsomes (CD1 female; M1500) and rat liver microsomes (Sprague Dawley female; R1500) were purchased from Tebu-bio, and the assay was performed by methods previously described.[21] Inhibitors at 10 μM concentration incubated with the microsomes were assessed at 0, 15, and 30 min. Control samples containing no microsomes and no cofactors were also assessed at 0 and 30 min. Samples were extracted by protein precipitation, and centrifugation for 20 min in a refrigerated centrifuge (4 °C) at 3700 rpm. The supernatant was analyzed by LC–MS/MS for % metabolized over time.

[1] = biological target: hERG human potassium ion channel (Homo sapiens, UniProt Q12809)
Sequence of hERG human potassium ion channel (Q12809 whole entry): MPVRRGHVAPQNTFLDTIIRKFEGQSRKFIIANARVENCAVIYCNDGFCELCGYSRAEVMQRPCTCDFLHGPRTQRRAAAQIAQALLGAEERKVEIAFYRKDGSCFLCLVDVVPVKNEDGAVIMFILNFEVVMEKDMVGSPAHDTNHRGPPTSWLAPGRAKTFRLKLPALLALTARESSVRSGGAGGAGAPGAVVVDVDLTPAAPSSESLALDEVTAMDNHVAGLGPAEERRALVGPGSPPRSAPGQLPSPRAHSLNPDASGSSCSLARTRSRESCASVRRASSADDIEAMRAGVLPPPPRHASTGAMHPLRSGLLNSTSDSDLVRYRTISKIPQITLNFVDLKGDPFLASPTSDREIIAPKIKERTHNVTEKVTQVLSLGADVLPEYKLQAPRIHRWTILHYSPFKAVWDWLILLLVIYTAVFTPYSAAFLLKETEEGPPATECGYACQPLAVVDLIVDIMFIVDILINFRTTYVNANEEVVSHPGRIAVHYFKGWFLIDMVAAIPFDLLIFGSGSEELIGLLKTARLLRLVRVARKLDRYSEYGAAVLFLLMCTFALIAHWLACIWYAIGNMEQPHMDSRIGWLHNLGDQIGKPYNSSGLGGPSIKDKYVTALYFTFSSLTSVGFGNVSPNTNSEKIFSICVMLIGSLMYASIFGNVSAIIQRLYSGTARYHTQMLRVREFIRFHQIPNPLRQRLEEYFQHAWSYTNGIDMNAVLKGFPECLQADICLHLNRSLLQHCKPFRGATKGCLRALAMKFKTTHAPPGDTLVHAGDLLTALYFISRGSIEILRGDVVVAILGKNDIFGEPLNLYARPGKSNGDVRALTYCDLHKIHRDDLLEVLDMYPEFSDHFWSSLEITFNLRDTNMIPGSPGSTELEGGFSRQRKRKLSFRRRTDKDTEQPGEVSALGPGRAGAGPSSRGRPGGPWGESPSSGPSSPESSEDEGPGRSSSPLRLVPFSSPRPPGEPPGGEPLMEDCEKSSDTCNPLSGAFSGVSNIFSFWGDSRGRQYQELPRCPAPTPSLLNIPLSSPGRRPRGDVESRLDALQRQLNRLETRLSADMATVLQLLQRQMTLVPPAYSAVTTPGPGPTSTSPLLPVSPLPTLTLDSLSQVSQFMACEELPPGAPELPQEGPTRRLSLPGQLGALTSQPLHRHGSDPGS
Method: hERG inhibition was determined using the “hERG human potassium ion channel cell based antagonist Qpatch assay” by Eurofins Ltd. Cell permeability was determined using the “Caco-2 permeability assay” by Cyprotex Ltd.

In vivo PK, mouse = conditions: single po dose 50 mg/kg
From the text: Female Balb/C or CD1 nude mice (Charles River Laboratories) at 6 weeks of age were used for the mouse PK analyses. […] Three mice were used per time-point per route; average values are reported. They were placed under halothane or isoflurane anesthesia, and blood for plasma preparation was taken by terminal cardiac puncture into heparinized syringes.

For `Cn1cc(-c2cc(F)cc(S(=O)(=O)c3cnc(CN)s3)c2)cn1` [Compound 21e, (5-((3-Fluoro-5-(1-methyl-1H-pyrazol-4-yl)phenyl)sulfonyl)thiazol-2-yl)methanamine Hydrochloride], the IC50 (SSAO) was 36.3 µM and 40.3 µM, the IC50 (MAO-A) was 61.7 µM and 66.8 µM and the IC50 (MAO-B) was greater than 100 µM. For the same compound, the IC50 (DAO) was 21.3 µM and 22.5 µM, the “MLM stability (%)” value (MLM stability assay) was 90% and the IC50 [1] was 66 µM. For the same compound, the “AUC(PO)” value (In vivo PK, mouse; mouse plasma) was 4.48 µM·h, the Cmax (In vivo PK, mouse; mouse plasma) was 9.75 µM and the “t1/2(PO)” value (In vivo PK, mouse; mouse) was 2.0 h.
